{"source": "patent US20110230558A1", "about": "(priority 2008, published 2011)", "key": {"[1]": {"tested_on": "Salmonella typhimurium ATCC 16028", "details": "Gram − bacteria; cited from earlier work"}, "[2]": {"tested_on": "endotoxins produced by E. coli O113:H10", "test": "Endotoxin deactivation by LAE, LAL assay (turbidimetric, pyrochrome)", "assay_type": "biochemical", "details": "E. coli O113:H10 endotoxin 12.5 μg/ml, incubated two hours at 37° C., control without LAE 120", "method": "Turbidimetric LAL test was conducted according to the instructions provided by the manufacturer (Pyrotell-T, The associates of Cape Cod, Inc.). The standard curve was built based on 300, 30, 3, 0.3, 0.03 and 0.003 EU/ml. The same endotoxin in concentrations of 12.5 μg/ml was used in the experiment.\nLAE was applied in concentrations of 0, 5, 10, 20, 30, 50 μg/ml to assess this compound's ability to deactivate endotoxins. LAL reagent water (LRW) was used to make all the endotoxin dilutions including the standards. MIRENAT-CF is a 10.5% solution of LAE in Propylene glycol, so the dilutions of MIRENAT-CF were initially made in propylene glycol, so that concentration of LAE was kept as the only variable. For the presumptive deactivation procedure, the endotoxin was incubated together with LAE for two hours at 37° C. The turbidimetric assay was conducted two times using the onset time for OD405=0.05. The pyrochrome assay was conducted once using the same template on plates."}, "[3]": {"tested_on": "Lactobacillus delbrueckii ssp lactis CECT 372", "details": "Gram + bacteria; cited from earlier work"}, "[4]": {"tested_on": "Serratia marcenses CECT 274", "details": "Gram − bacteria; cited from earlier work"}, "[5]": {"tested_on": "Penicillium chrysogenum CECT 2802", "details": "Fungi; cited from earlier work"}, "[6]": {"tested_on": "Klebsiella pneumoniae var pneumoniae CECT 178", "details": "Gram − bacteria; cited from earlier work"}, "[7]": {"tested_on": "Saccharomyces cerevisiae ATCC 9763", "details": "Yeast; cited from earlier work"}, "[8]": {"tested_on": "Listeria monocytogenes ATCC 7644", "details": "Gram + bacteria; cited from earlier work"}, "[9]": {"tested_on": "Bordetella bronchiseptica ATCC 4617", "details": "Gram − bacteria; cited from earlier work"}, "[10]": {"tested_on": "Arthrobacter oxydans ATCC 8010", "details": "Gram + bacteria; cited from earlier work"}, "[11]": {"tested_on": "Alcaligenes faecalis ATCC 8750", "details": "Gram − bacteria; cited from earlier work"}, "[12]": {"tested_on": "Penicillium funiculosum CECT 2914", "details": "Fungi; cited from earlier work"}, "[13]": {"tested_on": "Aspergillus niger ATCC 14604", "details": "Fungi; cited from earlier work"}, "[14]": {"tested_on": "Escherichia coli ATCC 8739", "details": "Gram − bacteria; cited from earlier work"}, "[15]": {"tested_on": "Enterobacter aerogenes CECT 689", "details": "Gram − bacteria; cited from earlier work"}, "[16]": {"tested_on": "Candida albicans ATCC 10231", "details": "Yeast; cited from earlier work"}, "[17]": {"tested_on": "Proteus mirabilis CECT 170", "details": "Gram − bacteria; cited from earlier work"}, "S. typhimurium LPS": {"tested_on": "S. typhimurium LPS", "test": "Endotoxin deactivation as a function of LAE concentration, LAL assay", "assay_type": "biochemical, Salmonella typhimurium", "details": "for CONCENTRATION Endotoxin: S. typhimurium LPS 10 μg/ml, 2 hours at 37° C., control without LAE 17000", "method": "The 1 mg/ml stock solution of S. typhimurium LPS was prepared using the commercially available LPS obtained from the List Biological Laboratories, Inc. (cat #225). The 20 μg/ml solution of LPS was prepared by serially diluting the stock. All the LPS solutions were kept at refrigeration temperatures according to the instructions provided by the manufacturer.\nThe solutions of LAE prepared were used in the experiment. For the procedure, 500 μl of 20 μg/ml of endotoxins were mixed with 500 μl of LAE solution (10, 20, 40, 60 and 100 μg/ml) in glass reaction tubes, giving the final concentration of LPS, 10 μg/ml and the concentration range of LAE, 5-50 μg/ml. As a negative control, LPS was mixed with 1 mg/ml aqueous solution of propylene glycol. The mixture was incubated for 2 hours at 37° C. Each sample was serially diluted using the LAL reagent water to be assayed for the endotoxin activity."}, "[18]": {"details": "animals and humans; cited from earlier work"}, "[19]": {"tested_on": "Aureobasidium pullulans ATCC 9348", "details": "Fungi; cited from earlier work"}, "[20]": {"details": "rats; cited from earlier work"}, "[21]": {"tested_on": "Leuconostoc mesenteroides CETC 912", "details": "Gram + bacteria; cited from earlier work"}, "[22]": {"tested_on": "Rhodotorula rubra CECT 1158", "details": "Yeast; cited from earlier work"}, "[23]": {"tested_on": "Chaetonium globosum ATCC 6205", "details": "Fungi; cited from earlier work"}, "[24]": {"tested_on": "Staphylococcus aureus ATCC 6538", "details": "Gram + bacteria; cited from earlier work"}, "[25]": {"tested_on": "Micrococcus luteus ATCC 9631", "details": "Gram + bacteria; cited from earlier work"}, "[26]": {"tested_on": "Human epithelial cell lines (KB)", "test": "LPS-induced release of peptidases from human cell culture, fluorigenic substrate", "assay_type": "cell-based", "details": "for Peptidase released: LAE 2 μg/ml; for Peptidase released / reduction of the toxicity of LPS (measured by fluorescence release): KB cells", "method": "Human epithelial cell lines (KB) were obtained from American Cell type collection and grown in BGJ medium (Gibco, Buffalo, N.Y.) at 37° C. with 5% CO2. The medium was supplemented with 5% heated calf serum. Cells were placed in 24 well dishes with 0.5 ml medium per well. The release of peptidases from the human cell lines in response to LPS was measured by a coumarin based fluorigenic substrate utilized to study eukaryotic enzymes that degrade extracellular matrix proteins (collagen and fibronectin) and inactivated by inhibitors of matrix of metalloprotease (Yang et al. Abstract 105 at the 105th ASM general meeting).\nThe release of peptidase was measured by sensitive fluorescence test."}, "[27]": {"tested_on": "Bacillus subtilis ATCC 6633", "details": "Gram + bacteria; cited from earlier work"}, "[28]": {"tested_on": "Clostridium perfringens ATCC 77454", "details": "Gram + bacteria; cited from earlier work"}, "[29]": {"tested_on": "Gliocadium virens ATCC 4645", "details": "Fungi; cited from earlier work"}, "[30]": {"tested_on": "Citrobacter freundii ATCC 22636", "details": "Gram − bacteria; cited from earlier work"}, "[31]": {"tested_on": "Bacillus cereus var mycoide ATCC 11778", "details": "Gram + bacteria; cited from earlier work"}, "[32]": {"tested_on": "Pseudomonas aeruginosa ATCC 9027", "details": "Gram − bacteria; cited from earlier work"}}}
{"substance": "ethyl ester of the lauramide of the arginine monohydrochloride [LAE]", "values": [{"measurement": "M.I.C.", "setting": "[1]", "result": 32, "unit": "ppm"}, {"measurement": "CONCENTRATION Endotoxin", "setting": "[2]; LAE 10 μg/ml", "result": 80, "unit": "EU/ml × 10E3"}, {"measurement": "CONCENTRATION Endotoxin", "setting": "[2]; LAE 50 μg/ml", "result": 61, "unit": "EU/ml × 10E3"}, {"measurement": "M.I.C.", "setting": "[3]", "result": 16, "unit": "ppm"}, {"measurement": "M.I.C.", "setting": "[4]", "result": 2, "unit": "ppm"}, {"measurement": "M.I.C.", "setting": "[5]", "result": 128, "unit": "ppm"}, {"measurement": "M.I.C.", "setting": "[6]", "result": 32, "unit": "ppm"}, {"measurement": "M.I.C.", "setting": "[7]", "result": 32, "unit": "ppm"}, {"measurement": "M.I.C.", "setting": "[8]", "result": 10, "unit": "ppm"}, {"measurement": "M.I.C.", "setting": "[9]", "result": 128, "unit": "ppm"}, {"measurement": "M.I.C.", "setting": "[10]", "result": 64, "unit": "ppm"}, {"measurement": "M.I.C.", "setting": "[11]", "result": 64, "unit": "ppm"}, {"measurement": "M.I.C.", "setting": "[12]", "result": 16, "unit": "ppm"}, {"measurement": "M.I.C.", "setting": "[13]", "result": 32, "unit": "ppm"}, {"measurement": "M.I.C.", "setting": "[14]", "result": 32, "unit": "ppm"}, {"measurement": "M.I.C.", "setting": "[15]", "result": 32, "unit": "ppm"}, {"measurement": "M.I.C.", "setting": "[16]", "result": 16, "unit": "ppm"}, {"measurement": "M.I.C.", "setting": "[17]", "result": 64, "unit": "ppm"}, {"measurement": "CONCENTRATION Endotoxin", "setting": "S. typhimurium LPS; LAE 5 μg/ml (as MIRENAT-CF)", "result": 4000, "unit": "EU/ml × 10E3"}, {"measurement": "CONCENTRATION Endotoxin", "setting": "S. typhimurium LPS; LAE 10 μg/ml (as MIRENAT-CF)", "result": 3995, "unit": "EU/ml × 10E3"}, {"measurement": "CONCENTRATION Endotoxin", "setting": "S. typhimurium LPS; LAE 20 μg/ml (as MIRENAT-CF)", "result": 3000, "unit": "EU/ml × 10E3"}, {"measurement": "CONCENTRATION Endotoxin", "setting": "S. typhimurium LPS; LAE 30 μg/ml (as MIRENAT-CF)", "result": 4000, "unit": "EU/ml × 10E3"}, {"measurement": "CONCENTRATION Endotoxin", "setting": "S. typhimurium LPS; LAE 50 μg/ml (as MIRENAT-CF)", "result": 2500, "unit": "EU/ml × 10E3"}, {"measurement": "dose response of the deactivation effect", "setting": "S. typhimurium LPS; LAE concentration range 5-50 μg/ml", "result": "does not follow a dose response"}, {"measurement": "effect on the activity of S. typhimurium endotoxins", "setting": "S. typhimurium LPS; LAE in concentrations of 5-50 μg/ml", "result": "significantly decreased"}, {"measurement": "toxicity", "setting": "[18]", "result": "completely harmless to animals and humans"}, {"measurement": "M.I.C.", "setting": "[19]", "result": 16, "unit": "ppm"}, {"measurement": "absorption and metabolism", "setting": "[20]", "result": "fast absorption and metabolisation into naturally-occurring amino acids and the fatty acid lauric acid"}, {"measurement": "M.I.C.", "setting": "[21]", "result": 32, "unit": "ppm"}, {"measurement": "M.I.C.", "setting": "[22]", "result": 16, "unit": "ppm"}, {"measurement": "M.I.C.", "setting": "[23]", "result": 16, "unit": "ppm"}, {"measurement": "M.I.C.", "setting": "[24]", "result": 32, "unit": "ppm"}, {"measurement": "M.I.C.", "setting": "[25]", "result": 128, "unit": "ppm"}, {"measurement": "release of peptidase by LAE per se", "setting": "[26]; 2 μg LAE/ml without LPS, similar to the blank", "result": "less than 300 units"}, {"measurement": "peptidase response to LPS", "setting": "[26]; LAE 2 μg/ml added to LPS, both doses of LPS tested (10 and 20 μg/ml)", "result": "significant reduction of peptidase response"}, {"measurement": "Peptidase released", "setting": "[26]; LPS 0 μg/ml, blank sample 400", "result": 296, "unit": "Fluorescence units"}, {"measurement": "Peptidase released", "setting": "[26]; LPS 10 μg/ml, LPS alone 900", "result": 580, "unit": "Fluorescence units"}, {"measurement": "Peptidase released", "setting": "[26]; LPS 20 μg/ml, LPS alone 1200", "result": 655, "unit": "Fluorescence units"}, {"measurement": "reduction of the toxicity of LPS (measured by fluorescence release)", "setting": "[26]; LPS 10 μg/ml pre-mixed with 2 μg/ml of LAE", "result": 35.6, "unit": "%"}, {"measurement": "reduction of the toxicity of LPS (measured by fluorescence release)", "setting": "[26]; LPS 20 μg/ml pre-mixed with 2 μg/ml of LAE", "result": 45.4, "unit": "%"}, {"measurement": "M.I.C.", "setting": "[27]", "result": 16, "unit": "ppm"}, {"measurement": "M.I.C.", "setting": "[28]", "result": 16, "unit": "ppm"}, {"measurement": "M.I.C.", "setting": "[29]", "result": 32, "unit": "ppm"}, {"measurement": "M.I.C.", "setting": "[30]", "result": 64, "unit": "ppm"}, {"measurement": "M.I.C.", "setting": "[31]", "result": 32, "unit": "ppm"}, {"measurement": "M.I.C.", "setting": "[32]", "result": 32, "unit": "ppm"}]}
